For data set [1] the following is noted: some clinical studies and anecdotal reports; a perception; cited from earlier work.
A short description of data set [2]: Pain relief, THC alone versus cannabis extract.
Data set [3] in a line: Reports of subjects taking THCV. In kind it is in vivo. The source says: In a further aspect the invention also provides compositions which have specific ratios of tetrahydrocannabinovarin (THCV) or cannabidivarin (CBDV).

On to `C=C(C)[C@@H]1CCC(C)=C[C@H]1c1c(O)cc(CCCCC)cc1O` [CBD, cannabidiol], for which the “effect on psychoactive effects of THC” value in data set [1] was “modifies the psychoactive effects of THC”.
Take `CCCCCc1cc(O)c2c(c1)OC(C)(C)[C@@H]1CCC(C)=C[C@@H]21` [THC, tetrahydrocannabinol]: the “degree of pain relief” value in data set [2] is reported as “lower degree of pain relief”.
For the compound `CCCc1cc(O)c2c(c1)OC(C)(C)[C@@H]1CCC(C)=C[C@@H]21` [THCV, tetrahydrocannabinovarin], the hangover result in data set [3] is “less severe hangover”. Also, the mood enhancement result in data set [3] (compared with THC) is “less disturbing than that produced by THC”.

Source of the values: patent publication US20050042172A1, “Administration of medicaments by vaporisation” (priority 2001, published 2005).
